In US20110046147A1, “17BETA-HYDROXYSTEROID DEHYDROGENASE TYPE 1 INHIBITORS FOR THE TREATMENT OF HORMONE-RELATED DISEASES” (UNIVERSITAT DES SAARLANDES, priority 2007, published 2011):

Tests used:
17β-HSD1 = molecular target: T1, 17β-HSD1 (Homo sapiens, UniProt P14061); assay: Inhibition of 17β-HSD1 (estrone to estradiol, radio-HPLC); type: biochemical; conditions: for IC50: human placenta enzyme, 500 nM estrone, NADH 500 μM
T1 construct: In both cases, human placenta served as the enzyme source; from tissue; host or cells: human placenta
T1 sequence (P14061 1-328): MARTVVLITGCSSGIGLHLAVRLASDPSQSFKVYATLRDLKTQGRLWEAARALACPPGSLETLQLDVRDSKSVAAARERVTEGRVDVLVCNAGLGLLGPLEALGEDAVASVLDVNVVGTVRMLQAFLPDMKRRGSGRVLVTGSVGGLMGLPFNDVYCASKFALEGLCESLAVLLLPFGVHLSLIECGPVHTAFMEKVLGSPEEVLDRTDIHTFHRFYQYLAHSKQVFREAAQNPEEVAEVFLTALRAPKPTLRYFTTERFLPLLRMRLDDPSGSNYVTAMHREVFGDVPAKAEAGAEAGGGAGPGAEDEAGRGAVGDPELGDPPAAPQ
Description: In the 17β-HSD1 test, NADH is employed as a cosubstrate at a final concentration of 500 μM in order to avoid the product inhibition occurring with NADPH. The enzyme preparation is diluted with test buffer to such an extent that the control conversion is 10 to maximally 20% (about 1:650). As the substrate, estrone in a final concentration of 500 nM is used, of which 3 nM is tritiated. 2,4,6,7-[^3H]estrone is purchased from Perkin-Elmer, Boston. The inhibitor is added as a solution in DMSO (control: pure DMSO without inhibitor; the final concentration of DMSO in the assay is 1% in all cases).
(§1) After the reaction, the substrate and product are extracted by partitioning with ether, separated by chromatography (HPLC) and quantified by means of radiodetection.

17β-HSD2 = molecular target: T2, 17β-HSD2 (Homo sapiens, UniProt P37059); assay: Inhibition of 17β-HSD2 (estradiol to estrone, radio-HPLC); type: biochemical; conditions: human placenta microsome fraction, 500 nM estradiol, NAD+ 1500 μM
T2 construct: from tissue; host or cells: human placenta, microsome fraction
T2 sequence (P37059 1-387): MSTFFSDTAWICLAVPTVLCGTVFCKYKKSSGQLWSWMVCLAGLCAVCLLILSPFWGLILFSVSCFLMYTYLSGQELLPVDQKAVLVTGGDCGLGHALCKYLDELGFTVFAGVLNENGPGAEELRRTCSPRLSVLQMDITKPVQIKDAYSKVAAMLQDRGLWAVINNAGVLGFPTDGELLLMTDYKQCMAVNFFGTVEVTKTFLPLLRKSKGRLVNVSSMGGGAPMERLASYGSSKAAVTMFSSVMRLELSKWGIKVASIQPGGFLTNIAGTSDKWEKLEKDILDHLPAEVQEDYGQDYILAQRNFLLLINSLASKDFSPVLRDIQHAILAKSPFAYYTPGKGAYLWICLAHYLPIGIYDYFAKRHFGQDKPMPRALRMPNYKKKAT
Description: Determination of the inhibitory activity of the potential inhibitors: Inhibition of 17β-HSD1 and 17β-HSD2: In both cases, human placenta served as the enzyme source (Lin, S.-X. et al., J. Biol. Chem., 267: 16182-16187 (1992)).
In the 17β-HSD2 test, the natural cosubstrate NAD^+ is employed at a final concentration of 1500 μM. The microsome fraction is diluted in test buffer, so that a control conversion of 20 to 30% results (about 1:350). As the substrate, estradiol in a final concentration of 500 nM is used, of which 3 nM is tritiated. 2,4,6,7-[^3H]estradiol is also purchased from Perkin-Elmer, Boston. The inhibitor is added as a solution in DMSO (control: pure DMSO without inhibitor; the final concentration of DMSO in the assay is […]). After the addition of the substrate, incubation is performed at 37° C. for 20 minutes. The reaction is quenched by the addition of HgCl2 (final concentration of HgCl2: 0.166 mM).
as §1

CYP1A2 = molecular target: T3, CYP1A2 (Homo sapiens, UniProt P05177); assay: Inhibition of hepatic CYP enzymes: CYP1A2; type: biochemical; conditions: read-out: CYP1A2 IC50 (mean ± SD)
T3 construct: purchased Becton Dickinson GmbH (Heidelberg)
T3 sequence (P05177 1-516): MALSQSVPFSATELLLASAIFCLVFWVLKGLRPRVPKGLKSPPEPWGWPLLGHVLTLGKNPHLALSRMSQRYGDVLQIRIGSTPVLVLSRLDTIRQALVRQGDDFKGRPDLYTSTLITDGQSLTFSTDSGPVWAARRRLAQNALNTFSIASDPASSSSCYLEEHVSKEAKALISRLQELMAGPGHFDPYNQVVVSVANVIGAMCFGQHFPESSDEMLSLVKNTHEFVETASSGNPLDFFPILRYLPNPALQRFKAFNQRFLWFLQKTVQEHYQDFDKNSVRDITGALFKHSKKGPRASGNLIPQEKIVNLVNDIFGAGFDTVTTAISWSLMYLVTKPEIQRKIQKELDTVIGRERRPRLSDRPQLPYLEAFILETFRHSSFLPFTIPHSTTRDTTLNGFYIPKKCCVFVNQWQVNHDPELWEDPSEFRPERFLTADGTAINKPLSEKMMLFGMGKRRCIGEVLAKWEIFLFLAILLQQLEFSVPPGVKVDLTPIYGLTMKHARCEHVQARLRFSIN
Text: (§2) Drug interactions (inhibition of hepatic CYP enzymes): The inhibition of six human hepatic cytochrome P450 enzymes by selected compounds was examined by means of the kit supplied by Becton Dickinson GmbH (Heidelberg).

CYP2B6 = molecular target: T4, CYP2B6 (Homo sapiens, UniProt P20813); assay: Inhibition of hepatic CYP enzymes: CYP2B6; type: biochemical; conditions: read-out: CYP2B6 IC50 (mean ± SD)
T4 construct: purchased Becton Dickinson GmbH (Heidelberg)
T4 sequence (P20813 1-491): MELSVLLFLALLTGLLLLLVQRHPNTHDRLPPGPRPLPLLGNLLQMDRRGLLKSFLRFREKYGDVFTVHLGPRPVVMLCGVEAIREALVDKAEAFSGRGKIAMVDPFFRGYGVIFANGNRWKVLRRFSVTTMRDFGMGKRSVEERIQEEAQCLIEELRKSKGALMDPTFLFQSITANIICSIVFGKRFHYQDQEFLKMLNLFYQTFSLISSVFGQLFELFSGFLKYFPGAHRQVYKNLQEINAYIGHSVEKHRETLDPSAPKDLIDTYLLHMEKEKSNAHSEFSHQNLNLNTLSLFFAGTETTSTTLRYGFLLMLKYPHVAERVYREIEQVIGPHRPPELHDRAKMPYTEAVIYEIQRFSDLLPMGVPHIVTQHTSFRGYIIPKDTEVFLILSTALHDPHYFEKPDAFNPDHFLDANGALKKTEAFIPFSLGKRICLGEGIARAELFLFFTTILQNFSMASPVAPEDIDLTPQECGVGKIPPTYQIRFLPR
Text: as §2

CYP2C19 = molecular target: T5, CYP2C19 (Homo sapiens, UniProt P33261); assay: Inhibition of hepatic CYP enzymes: CYP2C19; type: biochemical; conditions: read-out: CYP2C19 IC50 (mean ± SD)
T5 construct: purchased Becton Dickinson GmbH (Heidelberg)
T5 sequence (P33261 whole entry): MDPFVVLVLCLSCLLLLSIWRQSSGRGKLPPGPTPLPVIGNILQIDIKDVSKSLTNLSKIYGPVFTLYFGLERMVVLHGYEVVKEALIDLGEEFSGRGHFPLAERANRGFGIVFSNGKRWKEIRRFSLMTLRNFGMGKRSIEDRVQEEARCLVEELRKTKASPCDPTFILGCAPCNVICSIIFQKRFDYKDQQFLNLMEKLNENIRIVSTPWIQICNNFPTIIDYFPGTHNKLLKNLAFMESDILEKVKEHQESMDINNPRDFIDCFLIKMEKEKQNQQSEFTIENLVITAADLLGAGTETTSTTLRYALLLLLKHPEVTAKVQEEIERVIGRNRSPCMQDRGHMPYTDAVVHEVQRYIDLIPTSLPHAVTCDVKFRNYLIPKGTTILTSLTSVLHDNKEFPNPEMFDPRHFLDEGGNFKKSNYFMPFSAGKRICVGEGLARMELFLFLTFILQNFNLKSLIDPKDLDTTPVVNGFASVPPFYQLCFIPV
Text: as §2

CYP2D6 = molecular target: T6, CYP2D6 (Homo sapiens, UniProt P10635); assay: Inhibition of hepatic CYP enzymes: CYP2D6; type: biochemical; conditions: read-out: CYP2D6 IC50 (mean ± SD)
T6 construct: purchased Becton Dickinson GmbH (Heidelberg)
T6 sequence (P10635 whole entry): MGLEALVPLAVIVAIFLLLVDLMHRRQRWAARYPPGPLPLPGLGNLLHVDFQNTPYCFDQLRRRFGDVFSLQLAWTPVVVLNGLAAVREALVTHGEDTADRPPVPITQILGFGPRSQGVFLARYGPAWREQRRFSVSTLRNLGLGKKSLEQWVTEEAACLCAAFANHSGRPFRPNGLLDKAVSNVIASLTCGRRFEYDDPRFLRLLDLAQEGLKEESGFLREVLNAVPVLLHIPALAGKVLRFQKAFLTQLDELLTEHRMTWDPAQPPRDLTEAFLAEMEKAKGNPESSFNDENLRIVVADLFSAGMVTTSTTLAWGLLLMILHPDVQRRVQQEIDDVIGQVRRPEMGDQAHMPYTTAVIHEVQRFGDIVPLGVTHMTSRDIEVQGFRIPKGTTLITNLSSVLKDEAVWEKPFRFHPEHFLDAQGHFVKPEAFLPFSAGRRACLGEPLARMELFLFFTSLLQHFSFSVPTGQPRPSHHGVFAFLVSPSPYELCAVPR
Text: as §2

estrogen receptor = conditions: cited from earlier work
estrogen receptor α = molecular target: T7, estrogen receptor α (Homo sapiens, UniProt P03372); assay: Affinity for the estrogen receptor α (RBA); type: binding; conditions: data not stated
T7 sequence (P03372 1-595): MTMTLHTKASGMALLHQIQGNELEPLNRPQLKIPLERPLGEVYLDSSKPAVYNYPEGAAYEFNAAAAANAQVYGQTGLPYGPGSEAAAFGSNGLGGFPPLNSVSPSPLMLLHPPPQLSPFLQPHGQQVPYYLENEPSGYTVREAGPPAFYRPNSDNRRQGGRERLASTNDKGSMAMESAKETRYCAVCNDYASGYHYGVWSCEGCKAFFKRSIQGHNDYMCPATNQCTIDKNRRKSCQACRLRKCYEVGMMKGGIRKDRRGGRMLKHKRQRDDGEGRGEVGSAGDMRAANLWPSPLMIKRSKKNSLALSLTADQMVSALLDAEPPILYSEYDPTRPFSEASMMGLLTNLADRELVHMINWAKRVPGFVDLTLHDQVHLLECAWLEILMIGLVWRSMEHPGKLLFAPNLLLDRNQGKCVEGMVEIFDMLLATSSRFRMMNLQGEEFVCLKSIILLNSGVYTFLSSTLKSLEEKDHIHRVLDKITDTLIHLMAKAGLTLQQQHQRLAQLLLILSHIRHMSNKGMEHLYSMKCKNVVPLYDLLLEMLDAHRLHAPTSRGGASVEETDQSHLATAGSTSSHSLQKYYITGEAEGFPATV
Description: Slight changes were made: The respective inhibitor was incubated at RT for 2 h with shaking.
The receptor affinities are established as RBA (relative binding affinity) values. The RBA value of the reference estradiol is set to 100%.

IC50 (17β-HSD1) | IC50 (17β-HSD2) | IC50 (CYP1A2) | IC50 (CYP2B6) | IC50 (CYP2C19) | IC50 (CYP2D6) | inhibition of 17β-HSD1 (in words) (17β-HSD1) | Inhibition of 17β-HSD1, IC50 (nM) (17β-HSD1; Table 6, isomeric bis(hydroxyphenyl)-1,3-thiazoles) | Selectivity IC50 (17β-HSD2)/IC50 (17β-HSD1) (17β-HSD1; ratio of IC50 values) | affinity for the estrogen receptor (in words) (estrogen receptor α) | SMILES | RBA (%) (Katzenellenbogen patent) (estrogen receptor)
280 nM | 2500 nM | 4.92 ± 0.09 µM | 14.2 ± 0.44 µM | 4.57 ± 0.05 µM | 7.76 ± 0.03 µM | – | – | – | – | Oc1cccc(-c2cnc(-c3cccc(O)c3)s2)c1 [Compound 22, 3,3′-(1,3-thiazole-2,5-diyl)diphenol] | –
– | – | – | – | – | – | no activity | no inhibition | – | – | Oc1ccc(-c2csc(-c3ccc(O)cc3)n2)cc1 [Compound 25, 4,4′-(1,3-Thiazole-2,4-diyl)diphenol] | 0.018%
410 nM | 2220 nM | – | – | – | – | – | – | 5.4 | negligible | Oc1cccc(-c2csc(-c3cccc(O)c3)n2)c1 [Compound 26, 3,3′-(1,3-Thiazole-2,4-diyl)diphenol] | –
